{"source": "ChEMBL document CHEMBL1128237", "about": "“6-(4-pyridinyl)-1H-1,2,3-triazolo[4,5-d]-pyrimidin-4(5H)-one: a structurally novel competitive AMPA receptor antagonist” (J Med Chem, 1995)", "key": {"[1]": {"biological_target": "Glutamate receptor ionotropic AMPA (Homo sapiens) (UniProt P48058+P42263+P42262+P42261)", "assay": "(§1) Inhibition of Ionotropic glutamate receptor AMPA binding to human hippocampal homogenates at concentration of 5-7 uM", "assay_type": "tissue-based", "conditions": "Hippocampus"}, "[2]": {"assay": "Inhibition of [3H]-kainic acid binding to kainate receptor at a concentration of 10 uM"}, "[3]": {"assay": "Ability to antagonize kainate-induced responses in frog oocyte", "assay_type": "functional"}, "[4]": {"assay": "Inhibition of [3H]-CGS 19755 binding to NMDA receptor at a concentration of 10 uM"}, "[5]": {"biological_target": "T1, Glutamate receptor ionotropic AMPA (Homo sapiens, UniProt P42261+P42262+P42263+P48058)", "assay": "as §1", "assay_type": "tissue-based, Hippocampus"}, "[6]": {"assay": "Ability to antagonize AMPA-induced responses in frog oocytes", "assay_type": "functional, cell-based", "conditions": "oocyte"}, "[7]": {"biological_target": "T1, Glutamate receptor ionotropic AMPA", "assay": "Inhibition of Ionotropic glutamate receptor AMPA binding to human hippocampal homogenates", "assay_type": "tissue-based, Hippocampus"}}}
{"smiles": "O=c1[nH]c(-c2ccncc2)nc2c1cnn2C1CCCC1", "values": [{"measurement": "inhibition", "setting": "[1]", "value": "< 5", "unit": "%"}]}
{"smiles": "Oc1[nH]c(-c2ccncc2)nc2nnnc1-2", "values": [{"measurement": "inhibition at 10 µM", "setting": "[2]", "value": 37, "unit": "%"}, {"measurement": "pA2", "setting": "[3]", "value": 6.2}, {"measurement": "inhibition at 10 µM", "setting": "[4]", "value": 17, "unit": "%"}, {"measurement": "IC50", "setting": "[5]", "value": 1800, "unit": "nM"}, {"measurement": "pA2", "setting": "[6]", "value": 6.08}]}
{"smiles": "Oc1nc(-c2ccncc2)nc2c1ncn2C1CCCC1", "values": [{"measurement": "inhibition at 10 µM", "setting": "[2]", "value": 15, "unit": "%"}, {"measurement": "IC50", "setting": "[7]", "value": 2100, "unit": "nM"}, {"measurement": "inhibition at 10 µM", "setting": "[4]", "value": 25, "unit": "%"}]}
{"smiles": "O=c1[nH]c2cc([N+](=O)[O-])c([N+](=O)[O-])cc2[nH]c1=O", "note": "[DNQX]", "values": [{"measurement": "IC50", "setting": "[5]", "value": 280, "unit": "nM"}]}
{"smiles": "Oc1nc(-c2ccncc2)nc2c(C3CCCC3)n[nH]c12", "values": [{"measurement": "inhibition", "setting": "[1]", "value": "< 5", "unit": "%"}]}
{"smiles": "Nc1[nH]c(-c2ccncc2)nc2nnnc1-2", "values": [{"measurement": "inhibition", "setting": "[1]", "value": "< 5", "unit": "%"}]}
{"smiles": "Cc1nc(O)c2c[nH]nc2n1", "values": [{"measurement": "inhibition", "setting": "[1]", "value": "< 5", "unit": "%"}]}
{"smiles": "Oc1[nH]c(-c2ccncc2)nc2ncnc1-2", "values": [{"measurement": "IC50", "setting": "[7]", "value": 1900, "unit": "nM"}]}
{"smiles": "Nc1[nH]c(-c2ccncc2)nc2ncnc1-2", "values": [{"measurement": "inhibition", "setting": "[1]", "value": "< 5", "unit": "%"}]}
